Test results as given in PubChem BioAssay AID1963979 (Molecular Pharmacology Branch, DTP, NCI, 2024).
pIC50: −log10 of the molar value. One block for each compound: values may come before it.

Tested on: 361931-004-R-J1-PDC multicell spheroid viability
Assay: Anticancer human tumor 361931-004-R-J1-PDC patient-derived colon adenocarcinoma cell line growth inhibition [PI3K]
Details: for pIC50: curve of first compound; for viability, T/C: stronger effect = lower value
How it was run: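 Targeted small molecules plus PI3K inhibitors, half-log dose series from Cmax (default top 10 microM), were applied to heterotypic spheroids of cancer cells with HUVEC and MSCs. Viability indicated growth inhibition.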

[1] = second compound 0.00316 µM, first compound 0.0316 µM
[2] = second compound 0.00316 µM, first compound 0.1 µM
[3] = second compound 0.00316 µM, first compound 0.316 µM
[4] = second compound 0.00316 µM, first compound 1 µM
[5] = second compound 0.00316 µM, first compound 3.16 µM
[6] = second compound 0.00316 µM, first compound 10 µM
[7] = second compound 0.01 µM, first compound 0.0316 µM
[8] = second compound 0.01 µM, first compound 0.1 µM
[9] = second compound 0.01 µM, first compound 0.316 µM
[10] = second compound 0.01 µM, first compound 1 µM
[11] = second compound 0.01 µM, first compound 3.16 µM
[12] = second compound 0.01 µM, first compound 10 µM
[13] = second compound 0.0316 µM, first compound 0.0316 µM
[14] = second compound 0.0316 µM, first compound 0.1 µM
[15] = second compound 0.0316 µM, first compound 0.316 µM
[16] = second compound 0.0316 µM, first compound 1 µM
[17] = second compound 0.0316 µM, first compound 3.16 µM
[18] = second compound 0.0316 µM, first compound 10 µM
[19] = second compound 0.1 µM, first compound 0.0316 µM
[20] = second compound 0.1 µM, first compound 0.1 µM
[21] = second compound 0.1 µM, first compound 0.316 µM
[22] = second compound 0.1 µM, first compound 1 µM
[23] = second compound 0.1 µM, first compound 3.16 µM
[24] = second compound 0.1 µM, first compound 10 µM
[25] = second compound 0.316 µM, first compound 0.0316 µM
[26] = second compound 0.316 µM, first compound 0.1 µM
[27] = second compound 0.316 µM, first compound 0.316 µM
[28] = second compound 0.316 µM, first compound 1 µM
[29] = second compound 0.316 µM, first compound 3.16 µM
[30] = second compound 0.316 µM, first compound 10 µM
[31] = second compound 1 µM, first compound 0.0316 µM
[32] = second compound 1 µM, first compound 0.1 µM
[33] = second compound 1 µM, first compound 0.316 µM
[34] = second compound 1 µM, first compound 1 µM
[35] = second compound 1 µM, first compound 3.16 µM
[36] = second compound 1 µM, first compound 10 µM
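Also: spheroids exposed to agents for seven days before readout.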

Structure (SMILES): C#Cc1c(F)ccc2cc(O)cc(-c3ncc4c(N5CC6CCC(C5)N6)nc(OCC56CCCN5CC(F)C6)nc4c3F)c12 (stereo not given) + COc1c(OCCCN2CCOCC2)ccc2c3n(c(=NC(=O)c4cnc(N)nc4)nc12)CCN3
pIC50 (second compound 0.00316 µM): < 5.00
pIC50 (second compound 0.01 µM): < 5.00
pIC50 (second compound 0.0316 µM): < 5.00
pIC50 (second compound 0.1 µM): 5.25
pIC50 (second compound 0.316 µM): 7.00
pIC50 (second compound 1 µM): > 7.50
viability, T/C [1]: 105%
viability, T/C [2]: 108%
viability, T/C [3]: 98.1%
viability, T/C [4]: 91.9%
viability, T/C [5]: 101%
viability, T/C [6]: 84.9%
viability, T/C [7]: 107%
viability, T/C [8]: 106%
viability, T/C [9]: 99.1%
viability, T/C [10]: 91%
viability, T/C [11]: 88.8%
viability, T/C [12]: 73%
viability, T/C [13]: 91.5%
viability, T/C [14]: 96.2%
viability, T/C [15]: 85.9%
viability, T/C [16]: 72.5%
viability, T/C [17]: 67.2%
viability, T/C [18]: 51.5%
viability, T/C [19]: 80.6%
viability, T/C [20]: 69.9%
viability, T/C [21]: 68.5%
viability, T/C [22]: 61.8%
viability, T/C [23]: 54.6%
viability, T/C [24]: 45.7%
viability, T/C [25]: 54.5%
viability, T/C [26]: 51.9%
viability, T/C [27]: 42.3%
viability, T/C [28]: 37.3%
viability, T/C [29]: 33.6%
viability, T/C [30]: 23%
viability, T/C [31]: 18.4%
viability, T/C [32]: 17.6%
viability, T/C [33]: 14.9%
viability, T/C [34]: 12.1%
viability, T/C [35]: 9.63%
viability, T/C [36]: 8.02%

Structure (SMILES): C=CC(=O)N1CCN(c2nc(=O)n(-c3c(C)ccnc3C(C)C)c3nc(-c4c(O)cccc4F)c(F)cc23)C(C)C1 (stereo not given) + COc1c(OCCCN2CCOCC2)ccc2c3n(c(=NC(=O)c4cnc(N)nc4)nc12)CCN3
pIC50 (second compound 0.00316 µM): < 5.00
pIC50 (second compound 0.01 µM): < 5.00
pIC50 (second compound 0.0316 µM): < 5.00
pIC50 (second compound 0.1 µM): < 5.00
pIC50 (second compound 0.316 µM): 7.50
pIC50 (second compound 1 µM): > 7.50
viability, T/C [1]: 97.7%
viability, T/C [2]: 100%
viability, T/C [3]: 100%
viability, T/C [4]: 98.7%
viability, T/C [5]: 99.9%
viability, T/C [6]: 90.1%
viability, T/C [7]: 98%
viability, T/C [8]: 95%
viability, T/C [9]: 92.6%
viability, T/C [10]: 94.4%
viability, T/C [11]: 103%
viability, T/C [12]: 89%
viability, T/C [13]: 94.6%
viability, T/C [14]: 89.5%
viability, T/C [15]: 90.6%
viability, T/C [16]: 94.7%
viability, T/C [17]: 91.6%
viability, T/C [18]: 82.4%
viability, T/C [19]: 83.8%
viability, T/C [20]: 80.3%
viability, T/C [21]: 77.8%
viability, T/C [22]: 76%
viability, T/C [23]: 78.8%
viability, T/C [24]: 54.9%
viability, T/C [25]: 48.7%
viability, T/C [26]: 49.8%
viability, T/C [27]: 47.1%
viability, T/C [28]: 39.5%
viability, T/C [29]: 51.1%
viability, T/C [30]: 32.8%
viability, T/C [31]: 20.4%
viability, T/C [32]: 22.1%
viability, T/C [33]: 15.4%
viability, T/C [34]: 20.2%
viability, T/C [35]: 18.3%
viability, T/C [36]: 12.4%

Further lines, with some results ahead:

pIC50 (second compound 0.00316 µM): < 5.00
pIC50 (second compound 0.01 µM): < 5.00
pIC50 (second compound 0.0316 µM): < 5.00
pIC50 (second compound 0.1 µM): < 5.00
pIC50 (second compound 0.316 µM): 7.31
pIC50 (second compound 1 µM): > 7.50
Structure (SMILES): CC(Cn1ccc(-c2ccc(C#N)c(Cl)c2)n1)NC(=O)c1cc(C(C)O)[nH]n1 (stereo not given) + COc1c(OCCCN2CCOCC2)ccc2c3n(c(=NC(=O)c4cnc(N)nc4)nc12)CCN3
viability, T/C [1]: 103%
viability, T/C [2]: 92.1%
viability, T/C [3]: 97.7%
viability, T/C [4]: 103%
viability, T/C [5]: 103%
viability, T/C [6]: 98%
viability, T/C [7]: 102%
viability, T/C [8]: 102%
viability, T/C [9]: 99.1%
viability, T/C [10]: 93.5%
viability, T/C [11]: 98.1%
viability, T/C [12]: 95%
viability, T/C [13]: 95.1%
viability, T/C [14]: 94.7%
viability, T/C [15]: 83.5%
viability, T/C [16]: 93.4%
viability, T/C [17]: 89.4%
viability, T/C [18]: 78%
viability, T/C [19]: 81.5%
viability, T/C [20]: 83.2%
viability, T/C [21]: 76.8%
viability, T/C [22]: 70.3%
viability, T/C [23]: 78%
viability, T/C [24]: 62.1%
viability, T/C [25]: 51.4%
viability, T/C [26]: 49.5%
viability, T/C [27]: 47.6%
viability, T/C [28]: 44%
viability, T/C [29]: 42.4%
viability, T/C [30]: 30.6%
viability, T/C [31]: 20.5%
viability, T/C [32]: 19%
viability, T/C [33]: 15.8%
viability, T/C [34]: 19.5%
viability, T/C [35]: 16.7%
viability, T/C [36]: 11.9%

pIC50 (second compound 0.00316 µM): 5.60
pIC50 (second compound 0.01 µM): 5.72
pIC50 (second compound 0.0316 µM): 5.74
pIC50 (second compound 0.1 µM): 5.80
pIC50 (second compound 0.316 µM): 7.31
pIC50 (second compound 1 µM): > 7.50
Structure (SMILES): Cn1ncc(Cl)c1-c1cc(C(=O)NC(CN)Cc2cccc(F)c2)sc1Cl (stereo not given) + COc1c(OCCCN2CCOCC2)ccc2c3n(c(=NC(=O)c4cnc(N)nc4)nc12)CCN3
viability, T/C [1]: 104%
viability, T/C [2]: 111%
viability, T/C [3]: 100%
viability, T/C [4]: 80.6%
viability, T/C [5]: 42.5%
viability, T/C [6]: 27.4%
viability, T/C [7]: 104%
viability, T/C [8]: 102%
viability, T/C [9]: 94.8%
viability, T/C [10]: 66.7%
viability, T/C [11]: 37.2%
viability, T/C [12]: 26.7%
viability, T/C [13]: 94.9%
viability, T/C [14]: 101%
viability, T/C [15]: 90.6%
viability, T/C [16]: 61.6%
viability, T/C [17]: 40.1%
viability, T/C [18]: 25.6%
viability, T/C [19]: 83.4%
viability, T/C [20]: 83.9%
viability, T/C [21]: 74.2%
viability, T/C [22]: 63%
viability, T/C [23]: 31.6%
viability, T/C [24]: 19%
viability, T/C [25]: 54.2%
viability, T/C [26]: 43.5%
viability, T/C [27]: 40.5%
viability, T/C [28]: 35.8%
viability, T/C [29]: 30.9%
viability, T/C [30]: 15.8%
viability, T/C [31]: 19.7%
viability, T/C [32]: 19.4%
viability, T/C [33]: 18.7%
viability, T/C [34]: 20.3%
viability, T/C [35]: 19.7%
viability, T/C [36]: 10.3%

pIC50 (second compound 0.00316 µM): 5.04
pIC50 (second compound 0.01 µM): 5.34
pIC50 (second compound 0.0316 µM): 5.83
pIC50 (second compound 0.1 µM): 6.35
pIC50 (second compound 0.316 µM): 7.49
pIC50 (second compound 1 µM): > 7.50
Structure (SMILES): Cn1nccc1Nc1nccc(-c2ccn(C(CO)c3ccc(Cl)c(F)c3)c(=O)c2)n1 (stereo not given) + COc1c(OCCCN2CCOCC2)ccc2c3n(c(=NC(=O)c4cnc(N)nc4)nc12)CCN3
viability, T/C [1]: 92.5%
viability, T/C [2]: 98.3%
viability, T/C [3]: 90.9%
viability, T/C [4]: 86.3%
viability, T/C [5]: 77%
viability, T/C [6]: 47.2%
viability, T/C [7]: 87.9%
viability, T/C [8]: 94.4%
viability, T/C [9]: 88.7%
viability, T/C [10]: 80.8%
viability, T/C [11]: 59.9%
viability, T/C [12]: 28.6%
viability, T/C [13]: 92%
viability, T/C [14]: 87.7%
viability, T/C [15]: 77.4%
viability, T/C [16]: 64%
viability, T/C [17]: 27.9%
viability, T/C [18]: 12.6%
viability, T/C [19]: 80.8%
viability, T/C [20]: 72.3%
viability, T/C [21]: 58.3%
viability, T/C [22]: 32.8%
viability, T/C [23]: 8.5%
viability, T/C [24]: 3.74%
viability, T/C [25]: 50.8%
viability, T/C [26]: 40.2%
viability, T/C [27]: 26.1%
viability, T/C [28]: 8.67%
viability, T/C [29]: 2.32%
viability, T/C [30]: 2.04%
viability, T/C [31]: 18.4%
viability, T/C [32]: 13.3%
viability, T/C [33]: 8.6%
viability, T/C [34]: 2.23%
viability, T/C [35]: 1.89%
viability, T/C [36]: 1.61%
